Data reported in patent US9345710B2, “Inhibitors of phosphatidic acid phosphohydrolase (PAP) enzymes for the treatment of cancers that depend on members of the ErbB/HER tyrosine kinase receptor family” (PONTIFICA UNIVERSIDAD CATOLICA DE CHILE, priority 2011, dated 2016).
Values joined by “and” are separate entries in the source; they are usually repeats but may differ in a detail not shown here. Equal entries are not always repeated.

Key:
[1] = cited from earlier work
[2] = tested on: EGFR; experiment: Indirect immunofluorescence of EGFR distribution in HeLa cells; parameters: EGFR endocytosis (immunofluorescent pattern): dose or concentration left out as unconfirmed; details: for EGFR endocytosis (immunofluorescent pattern): […] μM propranolol, […] μM desipramine; for EGFR staining pattern by indirect immunofluorescence: 30 min, 100 μM D- or L-propranolol, 20 μM desipramine
Procedure: HeLa cells grown on glass coverslips were washed three times with cold phosphate buffer saline (PBS) and incubated 2 h in serum free DMEM-HEPES media at 37° C., in order to accumulate EGFR on the cell surface. Then the cells were washed with PBS and fixed for 30 min at room temperature with 4% paraformaldehyde in PBS supplemented with 0.1 mM CaCl2 and 1 mM MgCl 2 (PBS-CM). After washing three times with PBS plus 0.2% gelatin (300 Bloom, Sigma Aldrich, PBS-CM-G), 5 minutes each time, cells were permeabilized with 0.2% Triton X-100 for 10 minutes at room temperature and incubated for 12 h at 4° C. with anti-EGFR monoclonal antibody (mAb) HB8506. After at least 6 washes in PBS-CM-G cells were incubated with secondary antibody anti-mouse IgG coupled to Alexa488 (dilution 1/1000) for 30 min at 37° C.

[3] = tested on: EGFR at the cell surface; details: highest dose 300 μM, 30 min; cited from earlier work
[4] = tested on: H1975 cells; experiment: Proliferation/viability, NSCLC cells H1975 (EGFR L858R/T790M); format: cell-based, human; details: 10 or 30 μM D-Prop, 1 μM Des, alone or combined, 4 days
Procedure: (§1) Viable cells counted in an automatic cell counter after incubation with vital tripan blue dye are represented as % of live cells respect to untreated controls.
(§2) Cells were seeded at a density of 10.000 cells per well in 24-well plates in triplicate and cultured in DMEM supplemented with 10% FBS and antibiotics (penicillin 100 U/ml and streptomycin 100 mg/ml). The medium with the drugs was changed each 24 hours. The respective controls received only culture medium. Viable cells were counted after 4 days of treatment in an automatic cell counter (Countess, Invitrogen) after incubation with vital tripan blue dye and are represented as % of live cells respect to untreated controls.

[5] = tested on: MDCK cells; experiment: Proliferation/viability, non-tumoral MDCK cells (selectivity control); format: cell-based, canine; details: 10 or 30 μM D-Prop, 1 μM Des, alone or combined, 4 days
Procedure: as §1, §2

[6] = tested on: B16F10 cells; experiment: Proliferation/viability, melanoma cells B16F10; format: cell-based, mice; details: 10 or 30 μM D-Prop, 1 μM Des, alone or combined, 4 days
Procedure: as §1, §2

[7] = tested on: GBM1 cells; experiment: Proliferation/viability of primary glioblastoma cells GBM1; format: cell-based, human; details: 10 μM D-Prop, 1 μM Des, alone or combined, 4 days
Procedure: as §2

[8] = tested on: UCI 101 cells; experiment: Proliferation/viability, ovarian cancer cells UCI 101; format: cell-based, human; details: 10 or 30 μM D-Prop, 1 μM Des, alone or combined, 4 days
Procedure: as §1, §2

[9] = tested on: U87 cells; experiment: Proliferation/viability of cultured tumor cells, U87; format: cell-based, human; details: 10 μM D-Prop, 1 μM Des, alone or combined, 4 days
Procedure: (§3) HeLa cells used for the radioligand binding assays and immunofluorescence to study EGFR endocytosis have been characterized previously in our laboratory (64, 122, 152). The cells were grown to approximately 80% confluence and maintained without serum for 4 h before testing. U87 human […] cells from the ATCC were grown and transfected with pcDNA3.1-EGFRvIII-myc using the lipofectamine method following the manufacturer's instructions (Invitrogen). 100,000 U87 cells were seeded in 15 mm plated and after 48 hours of seeding cells were transfected with 1 μg of plasmid pcDNA3-EGFRvIII-myc. After 48 hours post-transfection the selection medium (DMEM, 10% Fetal Bovine Serum (FBS) supplemented with antibiotics (100 IU/ml penicillin, […] streptomycin) and 0.8 mg/ml Geneticin was added (G418, Sigma). After 2 weeks in selection media, permanently transfected cells were obtained (U87-EGFRvIII).
(§4) Cells were seeded at a density of 10.000 cells per well in 24-well plates in triplicate and cultured in DMEM supplemented with 10% FBS and antibiotics (penicillin 100 U/ml and streptomycin 100 mg/ml). The medium with the drugs was changed each 24 hours. […] Viable cells were counted after 4 days of treatment in an automatic cell counter (Countess, Invitrogen) after incubation with vital tripan blue dye and are represented as % of live cells respect to untreated controls.

[10] = tested on: EGFR at the cell surface; experiment: 125I-EGF radioligand binding assay on HeLa cells (EGFR at the cell surface); format: cell-based, human; details: for decrease of EGFR at the cell surface (125I-EGF binding): 30 min, HeLa
Procedure: as §3
The radioligand ^125I-human EGF was prepared by the chloramine T method as described (122, 152, 160) yielding specific activities of 50000-70000 cpm/ng. Binding assays were performed in Hanks solution with 20 mM HEPES and 0.2% bovine serum albumin (BSA) for 1 h at 4° C., as described (122). HeLa cells deprived of serum for 4 h were treated for 30 min with the indicated doses of various drugs and then incubated with 20 ng/ml ^125I-EGF at 4° C. in binding medium (MEM-Hank's, 25 mM HEPES, 0.2% BSA RIA grade), stirring for 1 h. The cells were lysed with 1 N NaOH for 2 h at room temperature and the counts per minute of each sample in triplicate was determined in a gamma counter, including a nonspecific binding point obtained by incubation with an excess (500 fold) of cold ligand, whose value was subtracted from each sample. The radioligand binding in saturating condition provides an estimate of the amount of EGFR on the cell surface.

[11] = tested on: U87-EGFRvIII cells; experiment: Proliferation/viability of cultured tumor cells, U87-EGFRvIII; format: cell-based, human; details: 10 μM D-Prop, 1 μM Des, alone or combined, 4 days
Procedure: as §3, §4

Compound | half-time of concentration in circulation ([1]; human, in vivo) [h] | EGFR endocytosis (immunofluorescent pattern) [2] | decrease of the levels of EGFR at the cell surface (125I-EGF binding) [3] [%] | viable cells (% of live cells respect to untreated controls), H1975 [4] | viable cells (% of live cells respect to untreated controls), MDCK [5] | viable cells (% of live cells respect to untreated controls), B16F10 [6] | proliferation of GBM1 cells [7] | viable cells (% of live cells respect to untreated controls), UCI 101 [8] | concentration in the blood of patients ([1]; patients treated for arrhythmia, 12 h after the last dose (ref. 14)) [µM] | proliferation of U87 cells [9] | EGFR staining pattern by indirect immunofluorescence [2] | decrease of EGFR at the cell surface (125I-EGF binding) ([10]; 250 μM) [%] | decrease of EGFR at the cell surface (125I-EGF binding) ([10]; […] μM) | proliferation of U87-EGFRvIII cells [11] | reported effective blood concentration ([1]; human, in vivo) [µM] | EC50 ([10]; HeLa cells, serum deprived 4 h, drug 30 min, read-out: EC50 for decrease in 125I-EGF binding (EGFR at the cell surface))
CC(C)NCC(O)COc1cccc2ccccc12 (racemic) [propranolol] | 4 to 6 | induce endocytosis of the EGFR | 80 | – | – | – | – | – | – | – | – | – | – | – | – | –
CC(C)NC[C@@H](O)COc1cccc2ccccc12 [D-propranolol] | – | – | – | sensitive | not affected | sensitive | decrease their proliferation | sensitive | ~10 | not sensitive | the pattern changed to an intracellular location, mainly at the perinuclear region | ~80 | about 50% | decrease their proliferation | – | –
CC(C)NC[C@H](O)COc1cccc2ccccc12 [L-propranolol] | – | – | – | – | – | – | – | – | – | – | the pattern changed to an intracellular location, mainly at the perinuclear region | ~80 | about 50% | – | – | –
CNCCCN1c2ccccc2CCc2ccccc21 [desipramine] | – | induce endocytosis of the EGFR | – | sensitive | not affected | sensitive | decrease their proliferation | sensitive | – | not sensitive | the pattern changed to an intracellular location, mainly at the perinuclear region | – | – | decrease their proliferation | 1 | 20 to 25 µM and ~20 µM
